Laboratory results from patent publication US20240115745A1, “COMPOUNDS COMPRISING A FIBROBLAST ACTIVATION PROTEIN LIGAND AND USE THEREOF” (3B PHARMACEUTICALS GMBH, priority 2021, published 2024).
Like-named read-outs stand apart in the source and are kept apart here. *1 amine or outer side, *2 acyl side, *3 side chain or, on linkers, in order; H or OH if unused. Where a SMILES comes first, the peptide text is derived from it. Bridges are numbered along the chain shown (N, C = ends). [ ]: non-standard residue; d: D form. The star is where a group is joined. X4 = O=C(O)CN1CCN(CC(=O)O)CCN(CC(=O)NCCCOCCOCCOCCCN*)CCN(CC(=O)O)CC1; DOTA = O=C(O)CN1CCN(CC(=O)O)CCN(CC(=O)*)CCN(CC(=O)O)CC1; Suc = O=C(CCC(=O)[*:2])[*:1]; β3hK = NCCCC[C@H](N)CC(=O)O; 4Amb = NCc1ccc(C(=O)O)cc1; Nle = CCCC[C@H](N)C(=O)O; Hexanoyl = CCCCCC(=O)*; CO = O=C([*:1])[*:2]; NHBu = CCCCN*

Tests used:
[1] = biological target: T1, FAP-expressing human WI-38 fibroblasts (Homo sapiens, UniProt Q12884); assay: Competitive FACS binding assay;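 also: flow cytometry read-out of median Cy5 fluorescence on the cells, plotted versus test compound concentration, with IC50 derived by four-parameter logistic curve fitting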
T1 construct: FAP-expressing human WI-38 fibroblasts (ECACC) were cultured in EMEM; host or cells: WI-38 human fibroblasts
T1 sequence (Q12884 whole entry): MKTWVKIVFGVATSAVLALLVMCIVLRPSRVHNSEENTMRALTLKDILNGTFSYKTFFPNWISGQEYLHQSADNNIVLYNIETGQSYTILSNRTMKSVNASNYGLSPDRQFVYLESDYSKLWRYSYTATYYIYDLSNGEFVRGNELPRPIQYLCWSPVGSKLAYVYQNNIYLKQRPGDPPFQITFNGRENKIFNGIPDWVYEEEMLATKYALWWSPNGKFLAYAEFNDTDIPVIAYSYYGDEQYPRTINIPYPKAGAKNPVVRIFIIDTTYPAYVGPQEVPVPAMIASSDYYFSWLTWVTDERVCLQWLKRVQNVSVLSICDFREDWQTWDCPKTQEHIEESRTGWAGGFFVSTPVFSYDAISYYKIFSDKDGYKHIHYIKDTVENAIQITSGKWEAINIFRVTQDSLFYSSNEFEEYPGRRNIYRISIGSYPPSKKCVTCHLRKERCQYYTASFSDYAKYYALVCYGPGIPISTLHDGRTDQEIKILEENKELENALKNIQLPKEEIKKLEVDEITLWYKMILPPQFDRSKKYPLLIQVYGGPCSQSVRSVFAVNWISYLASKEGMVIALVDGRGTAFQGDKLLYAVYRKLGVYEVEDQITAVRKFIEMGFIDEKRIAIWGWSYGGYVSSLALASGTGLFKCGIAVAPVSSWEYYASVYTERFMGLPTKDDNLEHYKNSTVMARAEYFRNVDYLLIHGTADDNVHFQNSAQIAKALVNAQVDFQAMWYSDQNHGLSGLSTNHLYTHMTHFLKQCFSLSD

[2] = biological target: T2, Recombinant human FAP (Homo sapiens, UniProt Q12884); assay: FRET-based FAP protease activity assay; type: biochemical
T2 construct: purchased R&D systems 3715-SE
T2 sequence (Q12884 26-760 limits assumed): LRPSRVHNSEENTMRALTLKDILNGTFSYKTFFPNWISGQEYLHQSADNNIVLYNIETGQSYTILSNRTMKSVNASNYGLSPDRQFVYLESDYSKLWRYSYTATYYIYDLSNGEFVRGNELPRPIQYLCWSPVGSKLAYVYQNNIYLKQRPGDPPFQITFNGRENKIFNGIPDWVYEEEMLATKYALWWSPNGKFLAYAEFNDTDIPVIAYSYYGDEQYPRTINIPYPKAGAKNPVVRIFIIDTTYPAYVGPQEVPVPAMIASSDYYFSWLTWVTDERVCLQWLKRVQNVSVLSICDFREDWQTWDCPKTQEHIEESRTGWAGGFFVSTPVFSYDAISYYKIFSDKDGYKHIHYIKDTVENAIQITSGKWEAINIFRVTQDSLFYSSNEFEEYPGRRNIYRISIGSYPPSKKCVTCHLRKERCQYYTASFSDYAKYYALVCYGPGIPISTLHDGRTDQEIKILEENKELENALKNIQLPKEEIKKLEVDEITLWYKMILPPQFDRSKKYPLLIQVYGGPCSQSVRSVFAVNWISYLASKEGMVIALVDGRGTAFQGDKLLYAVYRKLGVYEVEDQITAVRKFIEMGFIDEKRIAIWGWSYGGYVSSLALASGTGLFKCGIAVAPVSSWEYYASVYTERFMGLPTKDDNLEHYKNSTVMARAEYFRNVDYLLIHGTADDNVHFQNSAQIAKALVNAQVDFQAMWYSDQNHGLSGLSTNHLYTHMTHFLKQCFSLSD

[3] = competition with 3 nM Cy5-labeled compound, WI-38 fibroblasts, 4° C., 1 hour, read-out: pIC50 Category (FACS) (converted)
[4] = recombinant human FAP, FRET-peptide substrate, 37° C., read-out: pIC50 Category (Activity) (converted)

IC50 [1, 3]	IC50 [2, 4]	Structure (SMILES)	IC50 ([1]; read-out: pIC50 (highest activity categories, FACS binding) (converted))	IC50 ([2]; read-out: pIC50 (highest activity categories, FAP activity) (converted))
< 100 nM	< 100 nM	CSCC[C@H](N)C(=O)N[C@H]1CSSC[C@@H](C(=O)N[C@@H](CC(=O)O)C(=O)N[C@@H](Cc2c[nH]cn2)C(=O)N[C@@H](Cc2ccccc2)C(=O)N[C@@H](CCCNC(=N)N)C(=O)N[C@@H](CC(=O)O)C(N)=O)NC(=O)[C@H](Cc2ccccc2)NC(=O)[C@H](CCC(=O)O)NC(=O)[C@H]([C@@H](C)O)NC(=O)[C@@H]2CCCN2C(=O)[C@@H]2CCCN2C1=O [Compound 1001, H-Met-[Cys-Pro-Pro-Thr-Glu-Phe-Cys]-Asp-His-Phe-Arg-Asp-NH2] (HELM PEPTIDE1{M.C.P.P.T.E.F.C.D.H.F.R.D.[am]}$PEPTIDE1,PEPTIDE1,2:R3-8:R3$$$V2.0)	–	–
< 100 nM	< 100 nM	CCCCCC(=O)N[C@H]1CSSC[C@@H](C(=O)N[C@@H](CC(=O)O)C(=O)N[C@@H](Cc2c[nH]cn2)C(=O)N[C@@H](Cc2ccccc2)C(=O)N[C@@H](CCCNC(=N)N)C(=O)N[C@@H](CC(=O)O)C(N)=O)NC(=O)[C@H](Cc2ccccc2)NC(=O)[C@H](CCC(=O)O)NC(=O)[C@H]([C@@H](C)O)NC(=O)[C@@H]2CCCN2C(=O)[C@@H]2CCCN2C1=O [Compound 1002, Hex-[Cys-Pro-Pro-Thr-Glu-Phe-Cys]-Asp-His-Phe-Arg-Asp-NH2] (HELM PEPTIDE1{[CCCCCC(=O)[*:2]].C.P.P.T.E.F.C.D.H.F.R.D.[am]}$PEPTIDE1,PEPTIDE1,2:R3-8:R3$$$V2.0)	–	–
< 100 nM	< 100 nM	CCCC[C@H](NC(=O)CCC(=O)NCCCOCCOCCOCCCNC(=O)CN1CCN(CC(=O)O)CCN(CC(=O)O)CCN(CC(=O)O)CC1)C(=O)N[C@H]1CSSC[C@@H](C(=O)N[C@@H](CC(=O)O)C(N)=O)NC(=O)[C@H](Cc2ccccc2)NC(=O)[C@H](CCC(=O)O)NC(=O)[C@H]([C@@H](C)O)NC(=O)[C@@H]2CCCN2C(=O)[C@@H]2CCCN2C1=O [Compound 1003, DOTA-Ttds-Nle-[Cys-Pro-Pro-Thr-Glu-Phe-Cys]-Asp-NH2] ({X4-Suc}-[Nle]CPPTEFCD-NH2; disulfide 2-8)	–	–
< 100 nM	< 100 nM	CCCC[C@H](NC(=O)CCC(=O)NCCCOCCOCCOCCCNC(=O)CN1CCN(CC(=O)O)CCN(CC(=O)O)CCN(CC(=O)O)CC1)C(=O)N[C@H]1CSSC[C@@H](C(=O)N[C@@H](CC(=O)O)C(=O)N[C@@H](Cc2c[nH]cn2)C(=O)N[C@@H](Cc2ccccc2)C(=O)N[C@@H](CCCNC(=N)N)C(=O)N[C@@H](CC(=O)O)C(N)=O)NC(=O)[C@H](Cc2ccccc2)NC(=O)[C@H](CCC(=O)O)NC(=O)[C@H]([C@@H](C)O)NC(=O)[C@@H]2CCCN2C(=O)[C@@H]2CCCN2C1=O [Compound 1006, DOTA-Ttds-Nle-[Cys-Pro-Pro-Thr-Glu-Phe-Cys]-Asp-His-Phe-Arg-Asp-NH2] ({X4-Suc}-[Nle]CPPTEFCDHFRD-NH2; disulfide 2-8)	–	–
< 100 nM	< 100 nM	CCCC[C@H](NC(=O)CCC(=O)NCCCOCCOCCOCCCNC(=O)CN1CCN(CC(=O)O)CCN(CC(=O)O)CCN(CC(=O)O)CC1)C(=O)N[C@H]1CSSC[C@@H](C(=O)N[C@@H](CC(=O)O)C(=O)NCc2ccc(C(=O)N[C@@H](CCCNC(=N)N)C(N)=O)cc2)NC(=O)[C@H](Cc2ccccc2)NC(=O)[C@H](CCC(=O)O)NC(=O)[C@H]([C@@H](C)O)NC(=O)[C@@H]2CCCN2C(=O)[C@@H]2CCCN2C1=O [Compound 1007, DOTA-Ttds-Nle-[Cys-Pro-Pro-Thr-Glu-Phe-Cys]-Asp-Pamb-Arg-NH2] ({X4-Suc}-[Nle]CPPTEFCD[4Amb]R-NH2; disulfide 2-8)	–	–
< 100 nM	< 100 nM	CCCC[C@H](NC(=O)CCC(=O)NCCCOCCOCCOCCCNC(=O)CN1CCN(CC(=O)O)CCN(CC(=O)O)CCN(CC(=O)O)CC1)C(=O)N[C@H]1CSSC[C@@H](C(=O)N[C@@H](CC(=O)O)C(N)=O)NC(=O)[C@H](Cc2ccccc2)NC(=O)[C@H](CCC(N)=O)NC(=O)[C@H]([C@@H](C)O)NC(=O)[C@@H]2CCCN2C(=O)[C@@H]2CCCN2C1=O [Compound 1008, DOTA-Ttds-Nle-[Cys-Pro-Pro-Thr-Gln-Phe-Cys]-Asp-NH2] ({X4-Suc}-[Nle]CPPTQFCD-NH2; disulfide 2-8)	–	–
< 100 nM	< 100 nM	CCCC[C@H](NC(=O)CCC(=O)NCCCOCCOCCOCCCNC(=O)CN1CCN(CC(=O)O)CCN(CC(=O)O)CCN(CC(=O)O)CC1)C(=O)N[C@H]1CSSC[C@@H](C(=O)O)NC(=O)[C@H](Cc2ccccc2)NC(=O)[C@H](CCC(N)=O)NC(=O)[C@H]([C@@H](C)O)NC(=O)[C@@H]2CCCN2C(=O)[C@@H]2CCCN2C1=O [Compound 1009, DOTA-Ttds-Nle-[Cys-Pro-Pro-Thr-Gln-Phe-Cys]-OH]	–	–
< 100 nM	< 100 nM	CCCC[C@H](NC(=O)CCC(=O)NCCCOCCOCCOCCCNC(=O)CN1CCN(CC(=O)O)CCN(CC(=O)O)CCN(CC(=O)O)CC1)C(=O)N[C@H]1CSSC[C@@H](C(=O)NCCC(=O)O)NC(=O)[C@H](Cc2ccccc2)NC(=O)[C@H](CCC(N)=O)NC(=O)[C@H]([C@@H](C)O)NC(=O)[C@@H]2CCCN2C(=O)[C@@H]2CCCN2C1=O [Compound 1010, DOTA-Ttds-Nle-[Cys-Pro-Pro-Thr-Gln-Phe-Cys]-Bal-OH]	–	–
< 100 nM	< 100 nM	CCCCCC(=O)N[C@H]1CSSC[C@@H](C(=O)N[C@@H](CCCCNC(=O)CN2CCN(CC(=O)O)CCN(CC(=O)O)CCN(CC(=O)O)CC2)CC(=O)O)NC(=O)[C@H](Cc2ccccc2)NC(=O)[C@H](CCC(N)=O)NC(=O)[C@H]([C@@H](C)O)NC(=O)[C@@H]2CCCN2C(=O)[C@@H]2CCCN2C1=O [Compound 1011, Hex-[Cys-Pro-Pro-Thr-Gln-Phe-Cys]-Bhk(DOTA)-OH]	–	–
< 100 nM	< 100 nM	CCCCCC(=O)N[C@H]1CSSC[C@@H](C(=O)N[C@@H](CCCCNC(=O)CN2CCN(CC(=O)O)CCN(CC(=O)O)CCN(CC(=O)O)CC2)CC(=O)O)NC(=O)[C@H](Cc2ccccc2)NC(=O)[C@H](CCC(=O)O)NC(=O)[C@H]([C@@H](C)O)NC(=O)[C@@H]2CCCN2C(=O)[C@@H]2CCCN2C1=O [Compound 1012, Hex-[Cys-Pro-Pro-Thr-Glu-Phe-Cys]-Bhk(DOTA)-OH] (Hexanoyl-CPPTEFC[β3hK](DOTA)-OH; disulfide 1-7)	–	–
< 100 nM	< 100 nM	CCCCCC(=O)N[C@H]1CSSC[C@@H](C(=O)N[C@@H](CC(=O)O)C(=O)N[C@@H](CCCCNC(=O)CN2CCN(CC(=O)O)CCN(CC(=O)O)CCN(CC(=O)O)CC2)C(N)=O)NC(=O)[C@H](Cc2ccccc2)NC(=O)[C@H](CCC(=O)O)NC(=O)[C@H]([C@@H](C)O)NC(=O)[C@@H]2CCCN2C(=O)[C@@H]2CCCN2C1=O [Compound 1013, Hex-[Cys-Pro-Pro-Thr-Glu-Phe-Cys]-Asp-Lys(DOTA)-NH2] (Hexanoyl-CPPTEFCDK(DOTA)-NH2; disulfide 1-7)	–	–
< 100 nM	< 100 nM	CCCCNC(=O)N[C@H]1CSSC[C@@H](C(=O)N[C@@H](CCCCNC(=O)CN2CCN(CC(=O)O)CCN(CC(=O)O)CCN(CC(=O)O)CC2)CC(=O)O)NC(=O)[C@H](Cc2ccccc2)NC(=O)[C@H](CCC(=O)O)NC(=O)[C@H]([C@@H](C)O)NC(=O)[C@@H]2CCCN2C(=O)[C@@H]2CCCN2C1=O [Compound 1014, Buur-[Cys-Pro-Pro-Thr-Glu-Phe-Cys]-Bhk(DOTA)-OH] ({NHBu-CO}-CPPTEFC[β3hK](DOTA)-OH; disulfide 1-7)	–	–
< 100 nM	< 100 nM	CCCCCC(=O)N[C@H]1CSSC[C@@H](C(=O)N[C@@H](CC(=O)O)C(=O)N[C@@H](CCCCNC(=O)CN2CCN(CC(=O)O)CCN(CC(=O)O)CCN(CC(=O)O)CC2)C(N)=O)NC(=O)[C@H](Cc2ccccc2)NC(=O)[C@H](CCC(N)=O)NC(=O)[C@H]([C@@H](C)O)NC(=O)[C@@H]2CCCN2C(=O)[C@@H]2CCCN2C1=O [Compound 1016, Hex-[Cys-Pro-Pro-Thr-Gln-Phe-Cys]-Asp-Lys(DOTA)-NH2] (Hexanoyl-CPPTQFCDK(DOTA)-NH2; disulfide 1-7)	–	–
< 100 nM	< 100 nM	CCCC[C@H](NC(=O)CCC(=O)NCCCOCCOCCOCCCNC(=O)CC[C@H](C(=O)O)N1CCN(CC(=O)O)CCN(CC(=O)O)CC1)C(=O)N[C@H]1CSSC[C@@H](C(=O)NCCC(=O)O)NC(=O)[C@H](Cc2ccccc2)NC(=O)[C@H](CCC(N)=O)NC(=O)[C@H]([C@@H](C)O)NC(=O)[C@@H]2CCCN2C(=O)[C@@H]2CCCN2C1=O [Compound 1018, NODAGA-Ttds-Nle-[Cys-Pro-Pro-Thr-Gln-Phe-Cys]-Bal-OH]	–	–

Structure (SMILES)	IC50 [1, 3]	IC50 [2, 4]	IC50 ([1]; read-out: pIC50 (highest activity categories, FACS binding) (converted))	IC50 ([2]; read-out: pIC50 (highest activity categories, FAP activity) (converted))
CCCC[C@H](NC(=O)CN1CCN(CC(=O)O)CCN(CC(=O)O)CCN(CC(=O)O)CC1)C(=O)N[C@H]1CSSC[C@@H](C(=O)N[C@@H](CC(=O)O)C(N)=O)NC(=O)[C@H](Cc2ccccc2)NC(=O)[C@H](CCC(=O)O)NC(=O)[C@H]([C@@H](C)O)NC(=O)[C@@H]2CCCN2C(=O)[C@@H]2CCCN2C1=O [Compound 1004, DOTA-Nle-[Cys-Pro-Pro-Thr-Glu-Phe-Cys]-Asp-NHd2] (HELM PEPTIDE1{[O=C(O)CN1CCN(CC(=O)O)CCN(CC(=O)[*:2])CCN(CC(=O)O)CC1].[Nle].C.P.P.T.E.F.C.D.[am]}$PEPTIDE1,PEPTIDE1,3:R3-9:R3$$$V2.0)	< 100 nM	< 100 nM	–	–
CCCC[C@H](NC(=O)COCCOCCNC(=O)CN1CCN(CC(=O)O)CCN(CC(=O)O)CCN(CC(=O)O)CC1)C(=O)N[C@H]1CSSC[C@@H](C(=O)N[C@@H](CC(=O)O)C(=O)N[C@@H](Cc2c[nH]cn2)C(=O)N[C@@H](Cc2ccccc2)C(=O)N[C@@H](CCCNC(=N)N)C(=O)N[C@@H](CC(=O)O)C(N)=O)NC(=O)[C@H](Cc2ccccc2)NC(=O)[C@H](CCC(=O)O)NC(=O)[C@H]([C@@H](C)O)NC(=O)[C@@H]2CCCN2C(=O)[C@@H]2CCCN2C1=O [Compound 1005, DOTA-O2Oc-Nle-[Cys-Pro-Pro-Thr-Glu-Phe-Cys]-Asp-His-Phe-Arg-Asp-NH2] (HELM PEPTIDE1{[O=C(O)CN1CCN(CC(=O)O)CCN(CC(=O)[*:2])CCN(CC(=O)O)CC1].[O=C(COCCOCCN[*:1])[*:2]].[Nle].C.P.P.T.E.F.C.D.H.F.R.D.[am]}$PEPTIDE1,PEPTIDE1,4:R3-10:R3$$$V2.0)	< 100 nM	< 100 nM	< 100 nM	< 100 nM
